Data: article PMC11329504, “Identification of novel small molecule-based strategies of COL7A1 upregulation and readthrough activity for the treatment of recessive dystrophic epidermolysis bullosa” (Scientific Reports, 2024)
Read-outs that look alike come from different tables or passages of the source.

Key:
RDEB_L1 cells = assay: RNAseq (HTPathwaySeq) transcriptomic profiling, GSEA; format: cell-based, human; conditions: 24 h; for modulation of GO terms related to NMD, readthrough, translation and unfolded protein response: 20 ng/mL TGFβ2, compound 7 and 8 at the highest concentrations tested of 100 and 300 µM
Description: The […]®) analysis was conducted at […], Belgium) using samples provided by Almirall. A total of 376 cell lysate samples representing 4 biological replicates of 94 samples were provided to […] in four 96-well plates. On each 96-well plate, two empty wells were allocated to include […] reference samples. Samples from the same biological group were distributed over the different plates to not confound inter-plate variability with biological signal. […] The compounds were evaluated in RDEB_L1 cells in the presence of 20 ng/mL TGFβ2 to mimic RDEB physiology and in normal human keratinocytes with no TGFβ2 treatment. Cells were treated during 24 h. Controls for RDEB_L1 cells not treated with TGFβ2 and RDEB_L1 and NHK cells treated with DMSO in the absence of compounds were also included. The conditions of the assay were identical to those described for the Real-time quantitative RT-PCR (see above). For the […], over 460 M reads were generated for 376 samples of interest, resulting in about 1.22 M reads per sample on average. […] is based on a 3'-end library preparation method, and gene body read coverage is concentrated towards the 3'-end of the genes. For quality control, a selection of lysate samples was checked for gDNA contamination and RNA content using qPCR before library preparation. RNA samples were processed to generate RNA-sequencing libraries using […] procedure based on the QuantSeq (Lexogen) 3'-end library preparation workflow. The quality of a selection of samples was assessed with the 2100 Bioanalyzer instrument (Agilent). Libraries were quantified using qPCR and pooled for single-end sequencing on a NextSeq 500 (Illumina) according to […] standard operating procedure. Raw reads were mapped to the human genome (hg38) and gene expression was quantified based on the Ensembl transcriptome annotation (version 85) using […]. Raw counts were normalized using […]2 prior to differential gene expression analysis. For each cell line, samples were clustered based on log-transformed normalized counts using tSNE. A perplexity parameter of 35 and a maximum number of 1000 iterations were applied. Genes with more than 10 normalized counts in at least 3 samples were used as input. Analysis was run in R (v3.2) with a fixed seed. […] For each contrast, genes ranked by fold change were used as input. PCA was applied on the fold changes of each compound vs their associated vehicle using the 500 genes with the greatest variance. Arrows connect the different incremental dosages used on each compound to observe their differentiation patterns. Pathway enrichment and PCA were performed using R v.3.2. Pathway enrichment was analyzed with cluster profile package. The procedure followed for the cell treatments of RDEB-L1 and NHEK, was the same as that used in the RT-qPCR study. Cell lysis and sample preparation were conducted according to […] instructions: Plates of treated cells were centrifuged for 5 min at 600 g at 4 °C, and the medium was carefully removed to avoid disturbing the cells. Then, cells were washed in PBS, centrifuged and the PBS was removed again. […] After checking that cells were lysed, the samples were transferred to 96-well PCR plates, and then sealed and stored at -80 °C to be sent to […].

[1] = system: total (truncated + full length) C7 in RDEB_L1 cells; assay: AlphaLISA quantification of total C7 in RDEB_L1 cells; format: cell-based, human; conditions: for EC50: Homo sapiens
Description: The AlphaLISA assay was developed in-house by using the biotin-conjugated rabbit polyclonal antibody anti-C7 (LSBio LS-298147) and conjugating the acceptor beads (PerkinElmer 6772001) to a monoclonal anti-Collagen type VII antibody produced in mouse, clone LH7.2 (Thermo MA5-13,432). Formulation of the mAb clone LH7.2 was exchanged to PBS and concentrated 5 × by using Amicon® Ultra-0.5 centrifugal filters up to 1 mg/ml. The conjugation procedure was carried out according to the protocol provided by PerkinElmer.
For compound treatment in RDEB patient-derived transformed keratinocytes, 5,000 cells were plated in 20 µL of supplemented KGM media containing 20 ng/mL TGFβ2 (SIGMA GF113) without GA-1000 in 384-well cell culture plates (Greiner 781098). The day after, 5 µL of test compounds prepared 5 × in supplemented KGM without GA-1000 were added over cells and incubated for 48 h at 37 °C and 5% CO2. For compound treatment in HEK293^R578X, 10,000 cells were plated in 20 μL of DMEM (High Glucose, 2 mM L-Glutamine, sodium pyruvate, and FBS 10%) in 384-well cell culture plates (Greiner 781,098,). The day after, 5 μL of test compounds prepared 5 × in DMEM complete medium were added over cells and incubated for 48 h at 37 °C and 5% CO2.
After the treatment process, 2.5 µL of RIPA buffer 10 x (Abcam ab156034) were added over the […] of cells for 20 min at room temperature to obtain a complete cell lysis. Then, 2 μL of sample (i.e., cell lysate with supernatant) were transferred to the AlphaLISA plate (PerkinElmer 6,059,340) containing […] of antibodies mixture ([…] of acceptor Beads-Ab and […] of biotin-rAb) prepared in AlphaLISA buffer 1 x (PerkinElmer AL00F). The reaction was incubated for 90 min at room temperature. Finally, 10 μL of […] of donor beads (PerkinElmer 6760002,) were added to the reaction under subdued light, mixed gently, and incubated for 3 h at room temperature. AlphaLISA signal was detected with an Envision microplate reader (Perkin Elmer) using the following setting: Filter: AlphaScreen, Excitation time: 180 ms, Integration time: 300 ms.
Statistical analyses were performed using GraphPad Prism v. 7.04 (La Jolla, California). Results are shown as mean ± SD of experimental replicates. Dose–response curves to assess compound treatment effect were plotted in a four-parameter logistic model. Relative EC50, representing the total drug concentration producing a 50% effect, was calculated in the four-parameter logistic equation. Comparisons of collagen protein and mRNA expression in different experimental conditions were made using ANOVA, followed by a post hoc test. statistical significance was considered with p values < 0.05.

[2] = Cytotoxicity, ATP levels, normal human keratinocytes (NHK); format: cell-based; conditions: normal human keratinocytes (NHK)
Description: The viability of RDEB patient-derived cell lines or NHK was evaluated by measuring the ATP levels as an indirect readout of the potential cytotoxicity effect of compounds. Cells were plated and treated exactly with the same conditions as those followed in the AlphaLISA assay, described above. To measure ATP levels, cells were processed using the ATPlite™ 1step luminescence-based assay (PerkinElmer 6,016,731), following the manufacturer’s protocol. 25 μL of ATPlite™ reagent was added directly over cells and plates were covered with a sealing film and shaken for 25 min using a microtiter plate shaker. Luminescence was measured in a Luminoskan Ascent luminometer (Thermo Fisher Scientific). 10 μM of Staurosporine was used as a reference compound and control for the total cytotoxicity.

[3] = RDEB_L1 cells, total C7 AlphaLISA, 48 h, 20 ng/mL TGFß2, mean ± SD, read-out: Increase in C7 levels EC50(rel)
[4] = human, NHK cells, ATP levels, read-out: Cytotox. IC50

Row | EC50 ([1]; RDEB_L1 cells, no gentamicin (Fig. 4b), read-out: EC50 of compound 1, total C7 AlphaLISA) | EC50 [1, 3] | decrease in the EC50 in the presence of increasing concentrations of gentamicin ([1]; RDEB_L1 cells) | EC50 ([1]; in RDEB_L1 and RDEB_L5 cells, read-out: EC50 (range over two cell lines)) | Structure (SMILES) | TGFβ signaling pathway signature (GSEA) (RDEB_L1 cells; 20 ng/mL TGFβ2, at 10 µM) | modulation of GO terms related to NMD, readthrough, translation and unfolded protein response (RDEB_L1 cells) | Increase in C7 levels Emax, % vs baseline ([1]; RDEB_L1 cells, at 12 µM, 20 ng/mL TGFß2) | effect of the combination with gentamicin on total C7 levels ([1]; RDEB_L1 cells, both at concentrations in the range of their EC50, 48 h, 20 ng/mL TGFβ) | IC50 [2, 4] | TGFβ signaling pathway signature (GSEA) (RDEB_L1 cells; 20 ng/mL TGFβ2) | EC50 ([1]; Table 5 SAR, C7 AlphaLISA, 20 ng/mL TGFß2 (cell line not given; compound 7 values equal RDEB_L1 of Table 1), read-out: Increase in C7 levels EC50 (rel)) | Increase in C7 levels Emax, % vs baseline ([1]; RDEB_L1 cells, at 50 µM, 20 ng/mL TGFß2) | Increase in C7 levels Emax, % vs baseline ([1]; Table 5 SAR, at 50 μM, 20 ng/mL TGFß2) | IC50 ([2]; read-out: cytotoxicity IC50) | concentrations at which activity was detectable in the AlphaLISA assay ([1]; RDEB_L1 and L5 cells) | Increase in C7 levels Emax, % vs baseline ([1]; RDEB_L1 cells, 20 ng/mL TGFß2)
1 | 4.56 µM | 3 ± 1.8 µM | threefold | – | NC(=O)Cn1ccc2ccc(-c3cnc(N)c(C(=O)NC4C5CC6CC4CC(O)(C6)C5)n3)cc21 (stereo not drawn) [Compound 1] | Downregulation of TGFβ signaling | Neither compound 1 nor chuangxinmycin nor 3-methyl-chuangxinmycin showed any impact on these pathways | 3279 ± 1236 at 12 % vs baseline | synergistic effect | 19 ± 2.4 µM | – | – | – | – | – | – | –
2 | – | 1700 ± 480 µM | – | 420 to 1700 µM | CNC(C)C1CCC(N)C(OC2C(N)CC(N)C(OC3OCC(C)(O)C(NC)C3O)C2O)O1 (stereo not drawn) [Gentamicin, reference compound] | – | modulating genes related with the response to unfolded and topologically incorrect proteins | – | – | 1600 ± 280 µM | – | – | – | – | – | > 100 µM | 199 ± 112 at 4100 % vs baseline

Row | Structure (SMILES) | EC50 ([1]; RDEB_L1 cells, no gentamicin (Fig. 4b), read-out: EC50 of compound 1, total C7 AlphaLISA) | EC50 [1, 3] | decrease in the EC50 in the presence of increasing concentrations of gentamicin ([1]; RDEB_L1 cells) | EC50 ([1]; in RDEB_L1 and RDEB_L5 cells, read-out: EC50 (range over two cell lines)) | TGFβ signaling pathway signature (GSEA) (RDEB_L1 cells; 20 ng/mL TGFβ2, at 10 µM) | modulation of GO terms related to NMD, readthrough, translation and unfolded protein response (RDEB_L1 cells) | Increase in C7 levels Emax, % vs baseline ([1]; RDEB_L1 cells, at 12 µM, 20 ng/mL TGFß2) | effect of the combination with gentamicin on total C7 levels ([1]; RDEB_L1 cells, both at concentrations in the range of their EC50, 48 h, 20 ng/mL TGFβ) | IC50 [2, 4] | TGFβ signaling pathway signature (GSEA) (RDEB_L1 cells; 20 ng/mL TGFβ2) | EC50 ([1]; Table 5 SAR, C7 AlphaLISA, 20 ng/mL TGFß2 (cell line not given; compound 7 values equal RDEB_L1 of Table 1), read-out: Increase in C7 levels EC50 (rel)) | Increase in C7 levels Emax, % vs baseline ([1]; RDEB_L1 cells, at 50 µM, 20 ng/mL TGFß2) | Increase in C7 levels Emax, % vs baseline ([1]; Table 5 SAR, at 50 μM, 20 ng/mL TGFß2) | IC50 ([2]; read-out: cytotoxicity IC50) | concentrations at which activity was detectable in the AlphaLISA assay ([1]; RDEB_L1 and L5 cells) | Increase in C7 levels Emax, % vs baseline ([1]; RDEB_L1 cells, 20 ng/mL TGFß2)
3 | C#Cc1cc(-c2ccncc2)c(-c2cccc(F)c2)nc1N [Compound 7] | – | 17 ± 6.6 µM | – | – | – | modulating genes specifically related to cytoplasmic translation and the ribosome | – | – | – | did not show any effect | 17 ± 6.6 µM | 412 ± 80 at 50 % vs baseline | 412 ± 80 at 50 % vs baseline | > 100 µM | – | –
